Measured values from PubChem BioAssay AID248 (DTP/NCI, 2004).
Where “and” joins values, the source holds several entries; their conditions need not be identical. Equal entries are not always repeated. Inconclusive results and toxic doses are left out.

System: L1210 leukemia ip in BDF1 mice, survival T/C
Test: NCI In Vivo Anticancer Drug Screen. Data for tumor model L1210 Leukemia (intraperitoneal) in B6D2F1 (BDF1) mice
Details: endpoint: mean survival time, higher = longer survival
How it was run: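 Value reflects the ratio of survival in compound-treated mice to survival in vehicle-treated controls, with both groups carrying the same transplanted tumor.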

[1] = dose: 100.0 mg/kg/injection, schedule: Q04DX003 (ip), vehicle: saline with Tween-80
[2] = dose: 200.0 mg/kg/injection, schedule: Q04DX003 (ip), vehicle: saline with Tween-80
[3] = dose: 25.0 mg/kg/injection, schedule: Q01DX009 (ip), vehicle: saline with Tween-80
[4] = dose: 50.0 mg/kg/injection, schedule: Q01DX009 (ip), vehicle: saline with Tween-80
[5] = dose: 100.0 mg/kg/injection, schedule: Q01DX001 (ip), vehicle: saline
[6] = dose: 200.0 mg/kg/injection, schedule: Q01DX001 (ip), vehicle: saline
[7] = dose: 400.0 mg/kg/injection, schedule: Q01DX001 (ip), vehicle: saline
[8] = dose: 100.0 mg/kg/injection, schedule: Q04DX002 (ip), vehicle: Klucel (hydroxypropylcellulose) (HPC)
[9] = dose: 200.0 mg/kg/injection, schedule: Q04DX002 (ip), vehicle: Klucel (hydroxypropylcellulose) (HPC)
[10] = dose: 400.0 mg/kg/injection, schedule: Q04DX002 (ip), vehicle: Klucel (hydroxypropylcellulose) (HPC)
[11] = dose: 25.0 mg/kg/injection, schedule: Q04DX002 (ip), vehicle: Klucel (hydroxypropylcellulose) (HPC)
[12] = dose: 50.0 mg/kg/injection, schedule: Q04DX002 (ip), vehicle: Klucel (hydroxypropylcellulose) (HPC)
[13] = dose: 100.0 mg/kg/injection, schedule: Q01DX009 (ip), vehicle: saline with Tween-80
[14] = dose: 100.0 mg/kg/injection, schedule: Q01DX009 (ip), vehicle: Klucel (hydroxypropylcellulose) (HPC)
[15] = dose: 100.0 mg/kg/injection, schedule: Q04DX003 (ip), vehicle: Klucel (hydroxypropylcellulose) (HPC)
[16] = dose: 200.0 mg/kg/injection, schedule: Q01DX009 (ip), vehicle: Klucel (hydroxypropylcellulose) (HPC)
[17] = dose: 200.0 mg/kg/injection, schedule: Q04DX003 (ip), vehicle: Klucel (hydroxypropylcellulose) (HPC)
[18] = dose: 400.0 mg/kg/injection, schedule: Q01DX009 (ip), vehicle: Klucel (hydroxypropylcellulose) (HPC)
[19] = dose: 400.0 mg/kg/injection, schedule: Q04DX003 (ip), vehicle: Klucel (hydroxypropylcellulose) (HPC)

For `C=C1C2CCC3C4(C)CC(OC5OC(CO)C(OS(=O)(=O)O)C(OS(=O)(=O)O)C5OC(=O)CCCC)CC(C(=O)O)C4CCC3(C2)C1O` (stereo unspecified), the T/C (dose: 3.12 mg/kg/injection, schedule: Q01DX009 (ip), vehicle: saline) was 104 % of control, the T/C (dose: 6.25 mg/kg/injection, schedule: Q01DX009 (ip), vehicle: saline) was 92 % of control and the T/C [1] was 98 % of control. The T/C [2] was 106 % of control.
`COC12CCCC1S(=O)(=O)C2` (stereo unspecified) was tested, and the T/C [3] was 102 % of control and the T/C [4] was 98 % of control.
For `C=C1C(=O)OC2CCCCCCC12` (stereo unspecified), the T/C (dose: 50.0 mg/kg/injection, schedule: Q01DX009 (ip), vehicle: saline) was 95 % of control and the T/C (dose: 100.0 mg/kg/injection, schedule: Q01DX009 (ip), vehicle: saline) was 95 % of control.
In the case of `CC(=O)Nc1nc2c(ncn2C2OCC(OC(C)=O)C(OC(C)=O)C2OC(C)=O)c(=O)[nH]1` (stereo unspecified) (tested in a mixture with another compound), the T/C [5] is reported as 102 % of control, the T/C [6] is reported as 102 % of control and the T/C [7] is reported as 101 % of control.
With `COc1cc(/C=N/NC(=O)c2ccccc2N)ccc1O` the T/C [8] was 98 % of control, the T/C [9] was 106 % of control and the T/C [10] was 109 % of control.
`CN(C)C=NC1(c2ccccc2)CCCCC1` was tested, and the T/C [3] was 96 % of control and the T/C [4] was 96 % of control.
With `CC(C)(C)C(=O)C(Br)Br` the T/C [11] was 101 % of control, the T/C [12] was 96 % of control and the T/C [8] was 97 % of control and 101 % of control.
For `CCOC(=O)C(C#N)=C1CCN(Cc2ccccc2)CC1`, the T/C [5] was 96 % of control, the T/C [6] was 99 % of control and the T/C [7] was 105 % of control.
For `Cc1ccc2c(C)c3ccc4ccccc4c3c[n+]2c1`, the T/C (dose: 3.13 mg/kg/injection, schedule: Q01DX009 (ip), vehicle: saline with Tween-80) was 98 % of control, the T/C (dose: 6.2 mg/kg/injection, schedule: Q04DX003 (ip), vehicle: Klucel (hydroxypropylcellulose) (HPC)) was 111 % of control and the T/C (dose: 6.25 mg/kg/injection, schedule: Q01DX009 (ip), vehicle: saline with Tween-80) was 107 % of control. The T/C (dose: 12.5 mg/kg/injection, schedule: Q01DX009 (ip), vehicle: saline with Tween-80) was 107 % of control and 113 % of control, the T/C (dose: 12.5 mg/kg/injection, schedule: Q04DX003 (ip), vehicle: Klucel (hydroxypropylcellulose) (HPC)) was 104 % of control and the T/C (dose: 25.0 mg/kg/injection, schedule: Q04DX003 (ip), vehicle: Klucel (hydroxypropylcellulose) (HPC)) was 111 % of control. The T/C (dose: 50.0 mg/kg/injection, schedule: Q04DX003 (ip), vehicle: Klucel (hydroxypropylcellulose) (HPC)) was 117 % of control, the T/C [5] was 123 % of control and the T/C [6] was 104 % of control. The T/C [7] was 104 % of control.
For `NS(=O)(=O)c1ccc(NC(=S)NC(=O)c2ccc(Cl)cc2Cl)cc1`, the T/C [13] was 89 % of control and 90 % of control, the T/C (dose: 100.0 mg/kg/injection, schedule: Q04DX002 (ip), vehicle: saline with Tween-80) was 101 % of control and 92 % of control and the T/C (dose: 200.0 mg/kg/injection, schedule: Q01DX009 (ip), vehicle: saline with Tween-80) was 96 % of control and 89 % of control. For the same compound, the T/C (dose: 200.0 mg/kg/injection, schedule: Q04DX002 (ip), vehicle: saline with Tween-80) was 97 % of control and 90 % of control, the T/C (dose: 400.0 mg/kg/injection, schedule: Q01DX009 (ip), vehicle: saline with Tween-80) was 93 % of control and 89 % of control and the T/C (dose: 400.0 mg/kg/injection, schedule: Q04DX002 (ip), vehicle: saline with Tween-80) was 86 % of control and 92 % of control.
In the case of `CCCCCCCCCCCCOB(OCCCCCCCCCCCC)OCCCCCCCCCCCC`, the T/C (dose: 50.0 mg/kg/injection, schedule: Q01DX001 (ip), vehicle: carboxymethylcellulose (CMC)) is reported as 96 % of control, the T/C (dose: 100.0 mg/kg/injection, schedule: Q01DX001 (ip), vehicle: carboxymethylcellulose (CMC)) is reported as 102 % of control and the T/C [13] is reported as 98 % of control. The T/C (dose: 200.0 mg/kg/injection, schedule: Q01DX001 (ip), vehicle: carboxymethylcellulose (CMC)) was 94 % of control and the T/C (dose: 400.0 mg/kg/injection, schedule: Q01DX001 (ip), vehicle: carboxymethylcellulose (CMC)) was 94 % of control.
With `O=NN(CCCl)C(=O)Nc1ccccc1` the T/C (dose: 2.0 mg/kg/injection, schedule: Q01DX Z (ip), vehicle: carboxymethylcellulose (CMC)) was 114 % of control, the T/C (dose: 4.0 mg/kg/injection, schedule: Q01DX Z (ip), vehicle: carboxymethylcellulose (CMC)) was 169 % of control and the T/C (dose: 6.0 mg/kg/injection, schedule: Q01DX Z (ip), vehicle: carboxymethylcellulose (CMC)) was 160 % of control and 213 % of control. For the same compound, the T/C (dose: 10.0 mg/kg/injection, schedule: Q01DX Z (ip), vehicle: carboxymethylcellulose (CMC)) was 102 % of control, the T/C (dose: 14.0 mg/kg/injection, schedule: Q01DX Z (ip), vehicle: carboxymethylcellulose (CMC)) was 102 % of control and the T/C (dose: 18.0 mg/kg/injection, schedule: Q01DX001 (ip), vehicle: carboxymethylcellulose (CMC)) was 123 % of control. The T/C (dose: 18.0 mg/kg/injection, schedule: Q01DX Z (ip), vehicle: carboxymethylcellulose (CMC)) was 174 % of control, the T/C (dose: 20.0 mg/kg/injection, schedule: Q01DX Z (ip), vehicle: carboxymethylcellulose (CMC)) was 166 % of control and the T/C (dose: 25.0 mg/kg/injection, schedule: Q01DX Z (ip), vehicle: carboxymethylcellulose (CMC)) was 107 % of control and 89 % of control. The T/C (dose: 72.0 mg/kg/injection, schedule: Q01DX001 (ip), vehicle: carboxymethylcellulose (CMC)) was 114 % of control.
In the case of `O=C(NC(=S)Nc1ccccc1)c1cccc(Br)c1`, the T/C (dose: 75.0 mg/kg/injection, schedule: Q01DX001 (ip), vehicle: carboxymethylcellulose (CMC)) is reported as 90 % of control, the T/C (dose: 150.0 mg/kg/injection, schedule: Q01DX001 (ip), vehicle: carboxymethylcellulose (CMC)) is reported as 88 % of control and the T/C (dose: 300.0 mg/kg/injection, schedule: Q01DX001 (ip), vehicle: carboxymethylcellulose (CMC)) is reported as 96 % of control.
For `CCCC(=O)C(C)C(=O)C(F)(F)F.CCCC(=O)C(C)C(=O)C(F)(F)F.CCCC(=O)C(C)C(=O)C(F)(F)F.[Er]` (stereo unspecified), the T/C [14] was 116 % of control, the T/C [15] was 98 % of control and the T/C [16] was 102 % of control. For the same compound, the T/C [17] was 94 % of control, the T/C [18] was 113 % of control and the T/C [19] was 94 % of control.
For `Cc1cc([N+](=O)[O-])ccc1P(=O)(O)O`, the T/C [1] was 100 % of control and the T/C [2] was 108 % of control.
In the case of `CC(=O)/C(=C\c1ccc(Cl)c(Cl)c1)C(=O)c1ccccc1`, the T/C (dose: 100.0 mg/kg/injection, schedule: Q01DX009 (ip), vehicle: other) is reported as 97 % of control, the T/C (dose: 100.0 mg/kg/injection, schedule: Q04DX003 (ip), vehicle: other) is reported as 95 % of control and the T/C (dose: 200.0 mg/kg/injection, schedule: Q01DX009 (ip), vehicle: other) is reported as 103 % of control. The T/C (dose: 200.0 mg/kg/injection, schedule: Q04DX003 (ip), vehicle: other) was 91 % of control and the T/C (dose: 400.0 mg/kg/injection, schedule: Q04DX003 (ip), vehicle: other) was 93 % of control.
With `O/N=C1/CCCC/C1=C/C=C/c1ccccc1` the T/C [14] was 97 % of control, the T/C [15] was 100 % of control and the T/C [16] was 97 % of control. The T/C [17] was 94 % of control, the T/C [18] was 97 % of control and the T/C [19] was 93 % of control.
`O=c1[nH]nc(Sc2ccccc2)c(=O)[nH]1` was tested, and the T/C [5] was 97 % of control, the T/C [6] was 97 % of control and the T/C [7] was 97 % of control.
For `CCOC(=O)COc1ccc(-c2ccccc2)cc1Br`, the T/C [8] was 104 % of control, the T/C [9] was 104 % of control and the T/C [10] was 104 % of control.
With `CCCCCCCCCCC(N)C(=O)O` (stereo unspecified) the T/C (dose: 12.5 mg/kg/injection, schedule: Q04DX002 (ip), vehicle: Klucel (hydroxypropylcellulose) (HPC)) was 104 % of control, the T/C [11] was 91 % of control and the T/C [12] was 88 % of control.
In the case of `CC12CCC(O)CC1CCC1C2CCC2(C)C(c3ccc(=O)oc3)CC3OC312` (stereo unspecified), the T/C (dose: 50.0 mg/kg/injection, schedule: Q01DX001 (sc), vehicle: steriod suspending solution) is reported as 105 % of control, the T/C (dose: 100.0 mg/kg/injection, schedule: Q01DX001 (sc), vehicle: steriod suspending solution) is reported as 105 % of control and the T/C (dose: 200.0 mg/kg/injection, schedule: Q01DX001 (sc), vehicle: steriod suspending solution) is reported as 96 % of control. The T/C (dose: 400.0 mg/kg/injection, schedule: Q01DX001 (sc), vehicle: steriod suspending solution) was 100 % of control.
With `CN(C)/N=C1/CC(=O)CC(C)(C)C1` the T/C (dose: 50.0 mg/kg/injection, schedule: Q01DX009 (ip), vehicle: Klucel (hydroxypropylcellulose) (HPC)) was 110 % of control, the T/C [14] was 100 % of control and the T/C [16] was 100 % of control.
